Paper PMC4804716 (The FEBS journal, 2015)

Legend:
[1] = Cyclic voltammetry of menadione derivatives; type: physicochemical; settings: DMSO
[2] = pKa estimation by absorption spectrophotometry; type: physicochemical
[3] = Glutathionylation reaction kinetics; type: physicochemical; settings: pH 7.5
[4] = target: T1, Schistosoma mansoni thioredoxin glutathione reductase (SmTGR) (Schistosoma mansoni, UniProt Q962Y6); test: SmTGR DTNB assay; type: biochemical
T1 sequence (Q962Y6 1-598): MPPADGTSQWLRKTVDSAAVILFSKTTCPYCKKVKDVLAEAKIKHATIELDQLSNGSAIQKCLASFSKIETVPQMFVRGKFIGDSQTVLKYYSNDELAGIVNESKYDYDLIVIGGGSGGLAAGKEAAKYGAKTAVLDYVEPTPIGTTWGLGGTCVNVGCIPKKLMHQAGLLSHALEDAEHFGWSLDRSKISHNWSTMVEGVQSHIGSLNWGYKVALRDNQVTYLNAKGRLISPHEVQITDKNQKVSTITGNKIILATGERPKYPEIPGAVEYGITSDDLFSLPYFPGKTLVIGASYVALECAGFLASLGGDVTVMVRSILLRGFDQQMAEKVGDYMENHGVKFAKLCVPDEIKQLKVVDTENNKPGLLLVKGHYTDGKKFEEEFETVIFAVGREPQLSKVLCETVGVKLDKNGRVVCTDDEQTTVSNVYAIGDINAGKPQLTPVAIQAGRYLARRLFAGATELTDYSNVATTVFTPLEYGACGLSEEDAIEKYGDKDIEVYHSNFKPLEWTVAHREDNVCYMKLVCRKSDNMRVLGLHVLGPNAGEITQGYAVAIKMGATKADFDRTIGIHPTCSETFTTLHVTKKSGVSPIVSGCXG

[5] = test system: S. mansoni worms; test: Antischistosomal activity against adult, ex vivo worms; type: cell-based, Schistosoma mansoni
[6] = Cytotoxicity against human MRC-5 cells; type: cell-based; settings: human lung MRC-5 fibroblasts (MRC-5SV2 cells)
[7] = target: T1, Schistosoma mansoni thioredoxin glutathione reductase (SmTGR); test: Time-dependent inactivation of SmTGR; settings: high inhibitor concentrations, 5 min incubation without NADPH

COc1ccc(OCC2=C(C(F)F)C(=O)c3ccccc3C2=O)cc1C(F)(F)F [Compound 9, 2-(difluoromethyl)-3-((4-methoxy-3-(trifluoromethyl)phenoxy)methyl)naphthalene-1,4-dione]
Epa1 ([1]; 0.1 M n-Bu4NPF6, v = 200 mV s^−1, reference KCl(3 M)/Ag/AgCl, first wave): −0.215 V | Ipc1/Ipa1 ([1]; 0.1 M n-Bu4NPF6, v = 200 mV s^−1, first wave): 1.67 | E^1½ ([1]; E½ = (Epc+Epa)/2, 0.1 M n-Bu4NPF6, reference KCl(3 M)/Ag/AgCl, first wave): −0.271 V | ΔEp (first wave) ([1]; ΔE = Epa-Epc, 0.1 M n-Bu4NPF6, v = 200 mV s^−1): 111 mV | pKa [2]: ~7.1 | decrease of the k2 values compared to the difluoromenadione itself [3]: ~10 fold | IC50 [4]: 0.046 µM | antischistosomal activity against cultured ex vivo worms ([5]; 50 μM compound alone): inactive | killing of worms whether RBCs were present or not ([5]; 50 μM, with or without human red blood cells (10 μl/well)): no effect on killing the worms | IC50 at 3 days [6]: 11.2 µM | SmTGR inactivation in the absence of NADPH [7]: resulted in inactivation
